# From patent publication US11596639B2, “Substituted indole Mcl-1 inhibitors” (Vanderbilt University, priority 2016, dated 2023)
# Where two headings read alike, the source gives them in different places.
# How the values were obtained:
# [1] = target: Mcl-1 (Homo sapiens (Human), UniProt Q07820); assay: Fluorescence polarization anisotropy (FPA) competition assay, FITC-Bak or FITC-Bim BH3 peptide; assay type: binding; conditions: read-out: Ki for Inhibition of Mcl-1 by FPA assay
# [2] = test system: H929 human cancer cell lines; assay: Cellular viability / proliferation (Cell TiterGlo, 72 h); assay type: cell-based
# Procedure, shortened: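 Plating is at 1,000 cells/well in 10% FBS medium; after 24 h, compound is added as a 2-fold series starting at 50 μM with under 1% DMSO.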
# [3] = Homo sapiens, NCI-H929, 72 h, read-out: GI50 on cellular proliferation of H929 human cancer cell lines, H929 cells, 72 h, Cell TiterGlo, 10% FBS
# Chain of Mcl-1 (Q07820 172-327): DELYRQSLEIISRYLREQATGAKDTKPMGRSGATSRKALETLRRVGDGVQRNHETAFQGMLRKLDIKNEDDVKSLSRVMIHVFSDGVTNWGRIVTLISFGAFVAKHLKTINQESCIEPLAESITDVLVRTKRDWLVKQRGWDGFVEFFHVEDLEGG
Structure (SMILES),Ki [1] [nM],"GI50 [2, 3] [nM]","GI50 ([2]; H929 cells, 72 h, Cell TiterGlo, 10% FBS, read-out: GI50 on cellular proliferation of H929 human cancer cell lines) [nM]"
"Cc1cc(OCCCc2c3n(c4c(-c5c(C)nn(C)c5C)c(Cl)ccc24)[C@H](C)CN(c2cc(C(=O)O)cc4c2cnn4C)C3=O)cc(C)c1Cl [Example 84, (R)-4-(7-chloro-10-(3-(4-chloro-3,5-dimethylphenoxy)propyl)-4-methyl-1-oxo-6-(1,3,5-trimethyl-1H-pyrazol-4-yl)-3,4-dihydropyrazino[1,2-a]indol-2(1H)-yl)-1-methyl-1H-indazole-6-carboxylic acid]",< 1,1200,–
"Cc1cc(OCCCc2c3n(c4c(-c5c(C)ncnc5C)c(Cl)ccc24)[C@H](C)CN(c2cccc4c2cc(C(=O)O)n4C)C3=O)cc(C)c1Cl [Example 210, 4-[(4R)-7-chloro-10-[3-(4-chloro-3,5-dimethyl-phenoxy)propyl]-6-(4,6-dimethylpyrimidin-5-yl)-4-methyl-1-oxo-3,4-dihydropyrazino[1,2-a]indol-2-yl]-1-methyl-indole-2-carboxylic acid]",1.3,1500,–
"Cc1cc(OCCCc2c3n(c4c(-c5c(C)nn(C)c5C)c(Cl)ccc24)CCCN(c2cccc4c(C(=O)O)nn(C)c24)C3=O)cc(C)c1Cl [Example 13, 7-[8-Chloro-11-[3-(4-chloro-3,5-dimethyl-phenoxy)propyl]-1-oxo-7-(1,3,5-trimethylpyrazol-4-yl)-4,5-dihydro-3H-[1,4]diazepino[1,2-a]indol-2-yl]-1-methyl-indazole-3-carboxylic acid]",< 1,4500,–
"Cc1cc(OCCCc2c3n(c4c(-c5c(C)nn(C)c5C)c(Cl)ccc24)[C@H](C)CN(c2cn(CCC4CCOCC4)c4ccc(C(=O)O)cc24)C3=O)cc(C)c1Cl [Example 240, (R)-3-(7-Chloro-10-(3-(4-chloro-3,5-dimethylphenoxy)propyl)-4-methyl-1-oxo-6-(1,3,5-trimethyl-1H-pyrazol-4-yl)-3,4-dihydropyrazino[1,2-a]indol-2(1H)-yl)-1-(2-(tetrahydro-2H-pyran-4-yl)ethyl)-1H-indole-5-carboxylic acid]",< 1,1900,–
"Cc1cc(OCCCc2c3n(c4c(-c5c(C)nn(C)c5C)c(Cl)ccc24)[C@H](C)CN(c2c[nH]c4ccc(-c5ncn(C)n5)cc24)C3=O)cc(C)c1Cl [Example 471, (R)-7-chloro-10-(3-(4-chloro-3,5-dimethylphenoxy)propyl)-4-methyl-2-(5-(1-methyl-1H-1,2,4-triazol-3-yl)-1H-indol-3-yl)-6-(1,3,5-trimethyl-1H-pyrazol-4-yl)-3,4-dihydropyrazino[1,2-a]indol-1(2H)-one]",2.3,360,–
"CC(=O)N1CCN(Cc2nc(C)c(-c3c(Cl)ccc4c(CCCOc5cc(C)c(Cl)c(C)c5)c5n(c34)[C@H](C)CN(c3cn(C)c4ccc(C(=O)O)cc34)C5=O)c(C)n2)CC1 [Example 433, (R)-3-(6-(2-((4-Acetylpiperazin-1-yl)methyl)-4,6-dimethylpyrimidin-5-yl)-7-chloro-10-(3-(4-chloro-3,5-dimethylphenoxy)propyl)-4-methyl-1-oxo-3,4-dihydropyrazino[1,2-a]indol-2(1H)-yl)-1-methyl-1H-indole-5-carboxylic acid]",1.7,440,–
"Cc1cc(OCCCc2c3n(c4c(-c5c(C)nn(C)c5C)c(Cl)ccc24)[C@H](C)CN(c2cccc4nn(C)c(C(=O)O)c24)C3=O)cc(C)c1Cl [Example 132, 4-[(4R)-7-chloro-10-[3-(4-chloro-3,5-dimethyl-phenoxy)propyl]-4-methyl-1-oxo-6-(1,3,5-trimethylpyrazol-4-yl)-3,4-dihydropyrazino[1,2-a]indol-2-yl]-2-methyl-indazole-3-carboxylic acid]",< 1,840,–
"COc1cc(C(=O)O)cc(N2CCCn3c(c(CCCOc4cc(C)c(Cl)c(C)c4)c4ccc(Cl)c(-c5c(C)nn(C)c5C)c43)C2=O)c1OCCOc1ccccc1F [Example 65, 3-[8-Chloro-11-[3-(4-chloro-3,5-dimethyl-phenoxy)propyl]-1-oxo-7-(1,3,5-trimethylpyrazol-4-yl)-4,5-dihydro-3H-[1,4]diazepino[1,2-a]indol-2-yl]-4-[2-(2-fluorophenoxy)ethoxy]-5-methoxy-benzoic acid]",3.1,5500,–
"Cc1cc(OCCCc2c3n(c4c(-c5c(C)nn(C)c5C)c(Cl)ccc24)[C@H](C)CN(c2ccc(C(=O)O)c4c2ccn4C)C3=O)cc(C)c1Cl [Example 51, (R)-4-(7-chloro-10-(3-(4-chloro-3,5-dimethylphenoxy)propyl)-4-methyl-1-oxo-6-(1,3,5-trimethyl-1H-pyrazol-4-yl)-3,4-dihydropyrazino[1,2-a]indol-2(1H)-yl)-1-methyl-1H-indole-7-carboxylic acid]",< 1,1500,–
"Cc1cc(OCCCc2c3n(c4c(-c5c(C)nn(C)c5C)c(Cl)ccc24)CCCN(c2nn(CCN4CCOCC4)c4cc(C(=O)O)ccc24)C3=O)cc(C)c1Cl [Example 49, 3-(8-chloro-11-(3-(4-chloro-3,5-dimethylphenoxy)propyl)-1-oxo-7-(1,3,5-trimethyl-1H-pyrazol-4-yl)-4,5-dihydro-1H-[1,4]diazepino[1,2-a]indol-2(3H)-yl)-1-(2-morpholinoethyl)-1H-indazole-6-carboxylic acid]",< 1,2600,–
"Cc1cc(OCCCc2c3n(c4c(-c5c(C)nc(CN(C)C)nc5C)c(Cl)ccc24)[C@H](C)CN(c2cn(C)c4ccc(C(=O)O)cc24)C3=O)cc(C)c1Cl [Example 451, (R)-3-(7-Chloro-10-(3-(4-chloro-3,5-dimethylphenoxy)propyl)-6-(2-((dimethylamino)methyl)-4,6-dimethylpyrimidin-5-yl)-4-methyl-1-oxo-3,4-dihydropyrazino[1,2-a]indol-2(1H)-yl)-1-methyl-1H-indole-5-carboxylic acid]",< 1,< 200,–
"Cc1cc(OCCCc2c3n(c4c(-c5c(C)nn(C)c5C)c(Cl)ccc24)[C@H](C)CN(c2cn(C)c4cc(F)c(C(=O)O)cc24)C3=O)cc(C)c1Cl [Example 355, (M, R)-3-(7-Chloro-10-(3-(4-chloro-3,5-dimethylphenoxy)propyl)-4-methyl-1-oxo-6-(1,3,5-trimethyl-1H-pyrazol-4-yl)-3,4-dihydropyrazino[1,2-a]indol-2(1H)-yl)-6-fluoro-1-methyl-1H-indole-5-carboxylic acid]",1,–,730
"Cc1cc(OCCCc2c3n(c4c(-c5c(C)nn(C)c5C)c(Cl)ccc24)[C@H](C)CN(c2ccc4c(c2)c(C(=O)O)nn4C)C3=O)cc(C)c1Cl [Example 116, (R)-5-(7-Chloro-10-(3-(4-chloro-3,5-dimethylphenoxy)propyl)-4-methyl-1-oxo-6-(1,3,5-trimethyl-1H-pyrazol-4-yl)-3,4-dihydropyrazino[1,2-a]indol-2(1H)-yl)-1-methyl-1H-indazole-3-carboxylic acid]",< 1,9700,–
"COc1cnc(-c2ccc3c(c2)c(N2C[C@@H](C)n4c(c(CCCOc5cc(C)c(Cl)c(C)c5)c5ccc(Cl)c(-c6c(C)nn(C)c6C)c54)C2=O)cn3C)nc1 [Example 465, (R)-7-Chloro-10-(3-(4-chloro-3,5-dimethylphenoxy)propyl)-2-(5-(5-methoxypyrimidin-2-yl)-1-methyl-1H-indol-3-yl)-4-methyl-6-(1,3,5-trimethyl-1H-pyrazol-4-yl)-3,4-dihydropyrazino[1,2-a]indol-1(2H)-one]",1.5,690,–
"Cc1cc(OCCCc2c3n(c4c(-c5c(C)nn(C)c5C)c(Cl)ccc24)CCCN(c2cc(C(=O)O)c4cn[nH]c4c2)C3=O)cc(C)c1Cl [Example 44, 6-[8-chloro-11-[3-(4-chloro-3,5-dimethyl-phenoxy)propyl]-1-oxo-7-(1,3,5-trimethylpyrazol-4-yl)-4,5-dihydro-3H-[1,4]diazepino[1,2-a]indol-2-yl]-1H-indazole-4-carboxylic acid]",< 1,14000,–
"COc1ccc(Cn2c(C(=O)O)cc3cccc(N4C[C@@H](C)n5c(c(CCCOc6cc(C)c(Cl)c(C)c6)c6ccc(Cl)c(-c7c(C)nn(C)c7C)c65)C4=O)c32)nc1 [Example 382, (R)-7-(7-Chloro-10-(3-(4-chloro-3,5-dimethylphenoxy)propyl)-4-methyl-1-oxo-6-(1,3,5-trimethyl-1H-pyrazol-4-yl)-3,4-dihydropyrazino[1,2-a]indol-2(1H)-yl)-1-((5-methoxypyridin-2-yl)methyl)-1H-indole-2-carboxylic acid]",1.2,750,–
"Cc1cc(OCCCc2c3n(c4c(-c5c(C)nn(C)c5C)c(Cl)ccc24)[C@H](C)CN(c2cn(C)c4ccc(-c5ncn(C)n5)cc24)C3=O)cc(C)c1Cl [Example 403, (R)-7-Chloro-10-(3-(4-chloro-3,5-dimethylphenoxy)propyl)-4-methyl-2-(1-methyl-5-(1-methyl-1H-1,2,4-triazol-3-yl)-1H-indol-3-yl)-6-(1,3,5-trimethyl-1H-pyrazol-4-yl)-3,4-dihydropyrazino[1,2-a]indol-1(2H)-one]",1.5,< 200,–
"Cc1cc(OCCCc2c3n(c4c(-c5c(C)nn(C)c5C)c(Cl)ccc24)CCCN(c2cc(C(=O)O)c4cnn(C(C)C)c4c2)C3=O)cc(C)c1Cl [Example 92, 6-[8-Chloro-11-[3-(4-chloro-3,5-dimethyl-phenoxy)propyl]-1-oxo-7-(1,3,5-trimethylpyrazol-4-yl)-4,5-dihydro-3H-[1,4]diazepino[1,2-a]indol-2-yl]-1-isopropyl-indazole-4-carboxylic acid]",< 1,900,–
